The conditions of test [1]: metformin on its own, in the diabetic; cited from earlier work.
The next test deals with T1, human diamine oxidase (Homo sapiens, UniProt P19801).
T1 sequence (P19801 20-751): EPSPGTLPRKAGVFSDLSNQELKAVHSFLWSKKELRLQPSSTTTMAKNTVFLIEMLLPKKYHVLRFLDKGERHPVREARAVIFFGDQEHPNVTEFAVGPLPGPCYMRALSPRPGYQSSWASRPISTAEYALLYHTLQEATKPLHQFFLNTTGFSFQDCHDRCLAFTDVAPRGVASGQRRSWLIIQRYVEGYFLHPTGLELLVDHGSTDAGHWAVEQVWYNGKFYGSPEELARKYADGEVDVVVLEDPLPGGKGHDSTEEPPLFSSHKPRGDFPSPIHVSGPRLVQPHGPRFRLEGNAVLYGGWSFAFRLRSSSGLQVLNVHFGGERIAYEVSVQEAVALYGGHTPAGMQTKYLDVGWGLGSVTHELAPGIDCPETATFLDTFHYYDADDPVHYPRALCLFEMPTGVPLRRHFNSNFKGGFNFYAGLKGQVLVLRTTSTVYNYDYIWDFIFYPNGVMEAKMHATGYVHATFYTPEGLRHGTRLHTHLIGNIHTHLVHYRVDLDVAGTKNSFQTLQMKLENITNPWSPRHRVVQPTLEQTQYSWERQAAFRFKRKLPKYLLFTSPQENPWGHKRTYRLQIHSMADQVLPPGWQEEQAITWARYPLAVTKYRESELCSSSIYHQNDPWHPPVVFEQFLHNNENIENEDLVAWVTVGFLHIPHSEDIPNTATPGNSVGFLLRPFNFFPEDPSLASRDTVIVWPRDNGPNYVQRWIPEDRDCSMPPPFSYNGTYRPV
The test can be described thus: inhibition of human diamine oxidase. Type of test: biochemical.

The conditions of test [2]: patients with type 2 diabetes mellitus at high risk for cardiovascular events; cited from earlier work.
The subject of a further test is SGLT2 versus SGLT1. Conditions: cited from earlier work.

The structures appear in SMILES notation.

These results are taken from US20210212968A1, “COMBINATIONS COMPRISING AN SSAO/VAP-1 INHIBITOR AND A SGLT2 INHIBITOR, USES THEREOF” (Boehringer Ingelheim International GmbH, priority 2016, published 2021).

Consider `CN(C)C(=N)N=C(N)N` [metformin], for which the “average improvement in the HbA1c value” in test [1] is 1.0-1.5%.
Consider `CC(C)(C)NC(=O)c1ccc(OC/C(=C/F)CN)cc1` [Compound 23, (E)-4-(2-(Aminomethyl)-3-fluoroallyloxy)-N-tert-butylbenzamide], for which the “inhibitory activity against human diamine oxidase” value against human diamine oxidase is listed as “low inhibitory activity”.
As to `OC[C@H]1O[C@@H](c2ccc(Cl)c(Cc3ccc(O[C@H]4CCOC4)cc3)c2)[C@H](O)[C@@H](O)[C@@H]1O` [empagliflozin], in test [2], the “rates of the primary composite cardiovascular outcome and of death from any cause” value was “significantly lower rates”. Further, in the test on SGLT2 versus SGLT1, the “selectivity SGLT2 versus SGLT1” value is given as “high selectivity”.
